Experimental data from US20220009894A1, “1,2,3,4-TETRAHYDROQUINOXALINE DERIVATIVE, PREPARATION METHOD THEREFOR AND APPLICATION THEREOF” (Abbisko Therapeutics Co., Ltd., priority 2019, published 2022).

Tests used:
RORγt-LBD = biological target: T1, RORγt-LBD (Homo sapiens, UniProt P51449); assay: Time-resolved fluorescence resonance energy-transfer assay (TR-FRET), co-activator peptide recruitment; type: biochemical; set-up: TR-FRET Biochemical Amax: unit not given here; details: for EC50: His-RORγt-LBD 30 nM, SRC peptide 500 nM, agonistic activity, averages of one or more measurements, read-out: TR-FRET Biochemical EC50/; for TR-FRET Biochemical Amax: upper activation limit, His-RORγt-LBD, SRC peptide
T1 sequence (P51449 269-508 limits assumed): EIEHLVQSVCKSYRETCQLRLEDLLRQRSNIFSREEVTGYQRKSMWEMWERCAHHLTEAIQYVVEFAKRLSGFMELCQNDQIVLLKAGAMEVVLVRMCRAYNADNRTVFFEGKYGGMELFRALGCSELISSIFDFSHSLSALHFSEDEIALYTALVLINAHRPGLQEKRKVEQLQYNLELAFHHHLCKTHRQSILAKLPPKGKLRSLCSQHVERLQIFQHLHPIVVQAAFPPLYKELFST
Method in brief: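 This agonist-mode TR-FRET used 30 nM His-tagged RORγt-LBD, 500 nM biotinylated SRC peptide, 0.25 nM Eu-anti-His and 5 nM APC-streptavidin in pH 7.0 Tris/KCl buffer with DTT and Triton. A 7-concentration, 5-fold compound series was incubated at 4 °C overnight plus 1 h at room temperature, and the 665/615 nm signal was read.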

RORγt = biological target: T2, RORγt (Homo sapiens, UniProt P51449); assay: RORγt cellular reporter gene detection assay; type: cell-based; details: 24 hrs; for EC50: HEK 293 cells co-transfected with pFN26A-RORγt-LBD and pG14.35, in presence of antagonist Ursolic acid, top concentration 50 μM; for Cellular Reporter Assay Amax: upper activation limit, HEK 293 cells, in presence of antagonist Ursolic acid;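 for Cellular Reporter Assay Amax: Ursolic Acid added as 5 µL of 20 µM medium per well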
T2 construct: The plasmid of pFN26A-RORγt-LBD and pG14.35 (Promega, Cat. No. E1370) were co-transfected into HEK 293 cells; expressed in transfected cells; host or cells: HEK 293 cells (Cat. No. GNHu18)
T2 sequence (P51449 269-508 limits assumed): T1 sequence (P51449 269-508 limits assumed)
Method in brief: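 Compounds, titrated 4-fold from a 50 μM top concentration, were added with Ursolic acid to HEK293 cells carrying a RORγt-LBD plasmid and a reporter plasmid. After 24 h at 37° C, dual firefly/Renilla luciferase readout; four-parameter curves gave EC50 and maximal activation (Amax).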

EC50 (RORγt-LBD) | TR-FRET Biochemical Amax (RORγt-LBD) | EC50 (RORγt) | Cellular Reporter Assay Amax (RORγt) | SMILES
273 nM | 0.33 | 1940 nM | 5.6 | O=S(=O)(c1cccc(C(F)(F)F)c1)N1C[C@@H]2CC(O[C@@H]3O[C@H](CO)[C@@H](O)[C@H](O)[C@H]3O)CCN2c2ccc(-c3cc(F)cc(OC(F)F)c3)cc21 (stereo partly drawn) [Example 112, (2R,3R,4S,5S,6R)-2-(((6aS)-3-(3-(difluoromethoxy)-5-fluorophenyl)-5-((3-(trifluoromethyl)phenyl)sulfonyl)-6,6a,7,8,9,10-hexahydro-5H-pyrido[1,2-a]quinoxalin-8-yl)oxy)-6-(hydroxymethyl)tetrahydro-2H-pyran-3,4,5-triol]
28.9 nM | 0.98 | 979 nM | 7.0 | O=C(O)CN1CCN2c3ccc(/C=C/c4c(Cl)cccc4C(F)(F)F)cc3N(S(=O)(=O)c3cccc(C(F)(F)F)c3)C[C@H]2C1 [Example 83, (R,E)-2-(8-(2-chloro-6-(trifluoromethyl)styryl)-6-((3-(trifluoromethyl)phenyl)sulfonyl)-1,2,4,4a,5,6-hexahydro-3H-pyrazino[1,2-a]quinoxalin-3-yl)acetic acid]
384 nM | 0.96 | ≥ 50000 nM |  | O=S(=O)(c1cc(C(F)(F)F)cnc1OCCO)N1C[C@@H]2CNCCN2c2ccc(-c3cc(F)cc(OC(F)F)c3)cc21 [Example 87, (S)-2-((3-((8-(3-(difluoromethoxy)-5-fluorophenyl)-1,2,3,4,4a,5-hexahydro-6H-pyrazino[1,2-a]quinoxalin-6-yl)sulfonyl)-5-(trifluoromethyl)pyridin-2-yl)oxy) ethan-1-ol]
11.5 nM | 0.97 | 419 nM | 3.4 | CC1(C)C=C(c2ccc3c(c2)N(S(=O)(=O)c2cccc(C(F)(F)F)c2)C[C@@H]2CN(C(=O)CC#N)CCN32)CC(C)(C)O1 [Example 31, (S)-3-oxo-3-(8-(2,2,6,6-tetramethyl-3,6-dihydro-2H-pyran-4-yl)-6-((3-(trifluoro-methyl)phenyl)sulfonyl)-1,2,4,4a,5,6-hexahydro-3H-pyrazino[1,2-a]quinoxa-lin-3-yl)propanenitrile]
6.54 nM | 0.99 | 1180 nM | 3.2 | C/C(=C\c1ccc2c(c1)N(S(=O)(=O)c1cccc(C(F)(F)F)c1)C[C@@H]1CN(C3(C#N)CCC3)CCN21)c1c(F)cccc1Cl [Example 76, (S,E)-1-(8-(2-(2-chloro-6-fluorophenyl)prop-1-en-1-yl)-6-((3-(trifluoromethyl)phenyl)sulfonyl)-1,2,4,4a,5,6-hexahydro-3H-pyrazino[1,2-a]quinoxalin-3-yl)cyclobutane-1-carbonitrile]
21.2 nM | 1.19 | 355 nM | 4.0 | NC(=O)C1(N2CCN3c4ccc(/C=C/c5c(Cl)cccc5C(F)(F)F)cc4N(S(=O)(=O)c4cccc(C(F)(F)F)c4)C[C@@H]3C2)CCC1 [Example 81, (S,E)-1-(8-(2-chloro-6-(trifluoro-methyl)styryl)-6-((3-(trifluoro-methyl)phenyl)sulfonyl)-1,2,4,4a,5,6-hexa-hydro-3H-pyrazino[1,2-a]quinoxalin-3-yl) cyclobutane-1-carboxamide]
78.4 nM | 0.69 | 2340 nM | 12.6 | O=C(O)CN1CCN2c3ccc(/C=C/c4c(Cl)cccc4C(F)(F)F)cc3N(S(=O)(=O)c3cccc(OC(F)(F)F)c3)C[C@@H]2C1 [Example 86, (S,E)-2-(8-(2-chloro-6-(trifluoromethyl)styryl)-6-((3-(trifluoromethoxy)phenyl)sulfonyl)-1,2,4,4a,5,6-hexahydro-3H-pyrazino[1,2-a]quinoxalin-3-yl)acetic acid]

The next lines start with the compound.

SMILES | EC50 (RORγt-LBD) | TR-FRET Biochemical Amax (RORγt-LBD) | EC50 (RORγt) | Cellular Reporter Assay Amax (RORγt)
O=S(=O)(c1cccc(C(F)(F)F)c1)N1C[C@@H]2CCCN2c2ccc(-c3cc(F)cc(OC(F)F)c3)cc21 [Example 4, (S)-7-(3-(difluoromethoxy)-5-fluorophenyl)-5-((3-(trifluoromethyl)phenyl)sulfonyl)-1,2,3,3a,4,5-hexa-hydropyrrolo[1,2-a]qui-noxaline] | 28.4 nM | 1.25 | 3550 nM | 4.9
COC(=O)C(C)N1CCN2c3ccc(/C=C(\C)c4c(F)cccc4Cl)cc3N(S(=O)(=O)c3cccc(C(F)(F)F)c3)C[C@@H]2C1 (stereo partly drawn) [Example 23, methyl 2-((S)-8-((E)-2-(2-chloro-6-fluorophenyl)prop-1-en-1-yl)-6-((3-(trifluoromethyl)phenyl)sulfonyl)-1,2,4,4a,5,6-hexahydro-3H-pyrazino[1,2-a]quinoxalin-3-yl)propanoate] | 17.2 nM | 0.79 | 1080 nM | 3.8
COC(=O)C(C)N1CCN2c3ccc(C4=CC(C)(C)OC(C)(C)C4)cc3N(S(=O)(=O)c3cccc(C(F)(F)F)c3)C[C@@H]2C1 (stereo partly drawn) [Example 24, methyl 2-((S)-8-(2,2,6,6-tetramethyl-3,6-dihydro-2H-pyran-4-yl)-6-((3-(trifluoro-methyl)phenyl)sulfonyl)-1,2,4,4a,5,6-hexahydro-3H-pyrazino[1,2-a]qui-noxalin-3-yl)propanoate] | 31.5 nM | 0.92 | 48.5 nM | 2.4
CC1(C)C=C(c2ccc3c(c2)N(S(=O)(=O)c2cccc(C(F)(F)F)c2)C[C@@H]2CN(S(C)(=O)=O)CCN32)CC(C)(C)O1 [Example 19, (S)-3-(methylsulfonyl)-8-(2,2,6,6-tetramethyl-3,6-dihydro-2H-pyran-4-yl)-6-((3-(trifluorometh-yl)phenyl)sulfonyl)-2,3,4,4a,5,6-hexahydro-1H-pyrazino[1,2-a]quinoxaline] | 17.8 nM | 0.97 | 25.7 nM | 2.0
O=S(=O)(c1cccc(C(F)(F)F)c1)N1C[C@@H]2CNCCN2c2ccc(-c3cc(F)cc(OC(F)F)c3)cc21 [Example 12, (S)-8-(3-(difluoromethoxy)-5-fluorophenyl)-6-((3-(trifluoromethyl)phenyl)sulfonyl)-2,3,4,4a,5,6-hexa-hydro-1H-pyrazino[1,2-a]quinoxaline] | 136 nM | 0.67 | 2390 nM | 4.3
C/C(=C\c1ccc2c(c1)N(S(=O)(=O)c1cccc(C(F)(F)F)c1)C[C@@H]1CNCCN21)c1c(F)cccc1Cl [Example 10, (S,E)-8-(2-(2-chloro-6-fluorophenyl)prop-1-en-1-yl)-6-((3-(trifluoromethyl)phenyl)sulfonyl)-2,3,4,4a,5,6-hexahydro-1H-pyrazino[1,2-a]quinoxaline] | 13.6 nM | 0.81 | 578 nM | 2.8
CN1CCN(S(=O)(=O)c2cccc(C(F)(F)F)c2)c2cc(-c3cc(F)cc(OC(F)F)c3)ccc21 [Example 1, 6-(3-(difluoromethoxy)-5-fluorophenyl)-1-methyl-4-((3-(trifluoromethyl)phenyl)sulfonyl)-1,2,3,4-tetrahydroquinoxaline] | 18.4 nM | 1.61 | 518 nM | 3.3
